According to patent US8835631B2, “Therapeutic agent for cerebral infarction” (Mitsubishi Tanabe Pharma Corporation, priority 2007, dated 2014):

Experiments:
IL-6 = IL-6 production in LPS-administered mouse; type: in vivo, male BALB/c mouse; conditions: for IL-6 production in LPS model mouse (in words): 10 mg/kg orally 30 min before LPS; for IL-6 production (%): 10 mg/kg orally 30 min before LPS 500 μg/kg i.p., plasma 90 min after LPS, ratio to group without test compound
Description: (§1) LPS (lipopolysaccharide, derived from E. coli 0111:B4, Sigma, 500 μg/kg) was intraperitoneally administered to male BALB/c mouse (Charles River Laboratories Japan). After 90 min after LPS administration, the blood was taken under anesthesia, and centrifuged to collect plasma. TNF-α was measured using an Immunoassay Kit (R&D Systems) and IL-10, MCP-1 and IL-6 were measured using an Immunoassay Kit (BIOSOURCE). Test compound A, the compound synthesized in Example 3 (test compound B) and the compound synthesized in Example 7 (test compound C) were dissolved in saline, and the mixture was orally administered at 10 mg/kg 30 min before LPS administration. As shown in the Tables, the effect of each test compound on respective […] cytokines was calculated as the ratio of each cytokine concentration in the blood of the group administered with each test compound to each cytokine concentration in the blood of the group free of administration of each test compound.

IL-10 = IL-10 production in LPS-administered mouse; type: in vivo, male BALB/c mouse; conditions: for IL-10 in LPS model mouse (in words): 10 mg/kg orally 30 min before LPS; for IL-10 production (%): Table 1, 10 mg/kg orally 30 min before LPS 500 μg/kg i.p., plasma 90 min after LPS, ratio to group without test compound
Description: as §1

[1] = Evaluation of bioavailability in rat; type: in vivo, male SD(IGS) rats; conditions: plasma; for AUC0-last / AUC0-∞ / Cmax at 5 min / Cmax: Mean + SD; for Cmax at 5 min / bioavailability / Cmax: male, SD(IGS); for Cmax at 5 min: iv, read-out: Cmax (C5 min, plasma concentration at 5 min after administration); for bioavailability: oral, 3 mg/kg p.o. vs 3 mg/kg i.v., F = (AUC0-∞,p.o./AUC0-∞,i.v.,mean) × (Dosei.v./Dosep.o.) × 100; for Cmax: po, read-out: Cmax
Description: Test compound A, test compound B and test compound C were each dissolved in 0.5% aqueous HPMC (hydroxypropyl methylcellulose) solution in the case of oral administration, or in saline in the case of intravenous administration, and they were orally or intravenously administered to male SD(IGS) rats (Charles River Laboratories Japan) by 3 mg/kg. The concentration of unchanged drug in the plasma of each rat was measured, and bioavailability (F(%)) was calculated (F (%)=(AUC0-∞,p.o./AUC0-∞,i.v.,mean)×(Dosei.v./Dosep.o.)×100). The test compound was administered by gavage using an oral gavage needle (p.o.), or administered in the tail vein (i.v.). The blood samples were collected at 15 and 30 min, 1, 2, 4, 6, 8 and 24 hr after administration in the case of oral administration, and 5 and 30 min, 1, 2, 4, 6, 8 and 24 hr after administration in the case of intravenous administration.
The results are shown in Tables 4 (test compound A), 5 (test compound B) and 6 (test compound C). The Cmax values for i.v. in Tables 4, 5 and 6 show plasma concentration at 5 min after administration.

[2] = Evaluation of intracerebral transitivity in rat; type: in vivo, SD(IGS) rats; conditions: for Kp at 1 h / Kp at 4 h: SD(IGS), brain, po, 3 mg/kg orally, read-out: Kp value (ratio of plasma concentration and intracerebral concentration); for Kp at 1 h: 1 hr after administration; for Kp at 4 h: 4 hr after administration; for intracerebral transitivity (in words): orally, test compound A 30 mg/kg, test compounds B and C 3 mg/kg
Description: The test compound A dissolved in 0.5% aqueous HPMC solution was orally administered at 30 mg/kg, and test compound B and test compound C dissolved in 0.5% aqueous HPMC solution were each orally administered at 3 mg/kg to SD(IGS) rats (Charles River Laboratories Japan). At 1 hr and 4 hr after the administration of the test compound, blood samples were collected, and the brain (cerebral•cerebellum) was isolated. The plasma concentration and intracerebral concentration of each test compound were measured, and the ratio (Kp value) thereof was calculated, based on which the intracerebral transitivity was evaluated.

TNF-α = TNF-α production in LPS-administered mouse; type: in vivo, male BALB/c mouse; conditions: for TNF-α production in LPS model mouse (in words): 10 mg/kg orally 30 min before LPS; for TNF-α production (%): Table 1, 10 mg/kg orally 30 min before LPS 500 μg/kg i.p., plasma 90 min after LPS, ratio to group without test compound
Description: as §1

MCP-1 = MCP-1 production in LPS-administered mouse; type: in vivo, male BALB/c mouse; conditions: for MCP-1 production in LPS model mouse (in words): 10 mg/kg orally 30 min before LPS; for MCP-1 production (%): 10 mg/kg orally 30 min before LPS 500 μg/kg i.p., plasma 90 min after LPS, ratio to group without test compound
Description: as §1

[3] = system: rat middle cerebral artery occlusion-reperfusion model; experiment: Cerebral infarction volume in rat middle cerebral artery occlusion-reperfusion model; type: in vivo, male Wistar rats; conditions: 10 mg/kg intravenously 30 min after occlusion, reperfusion 90 min after occlusion, brain isolated 24 hr later, TTC stain; FIG. 7
Description: The middle cerebral artery of male Wistar rats (Japan Laboratory Animals Inc.) was obstructed with suture (silicon-coated nylon thread), and saline (Vehicle, n=7), test compound A (10 mg/kg, n=6) dissolved in saline, test compound B ([…], n=7) dissolved in saline, and test compound C (10 mg/kg, n=7) dissolved in saline were each intravenously administered in 30 min after occlusion and the artery was reperfused in 90 min after occlusion. The brain was isolated 24 hr later. A 2 mm brain strip was prepared, and the strip was stained with PBS (pH 7.4, 37° C.) containing 1% 2,3,5-triphenyltetrazolium chloride (TTC, Wako Pure Chemical Industries, Ltd.). The cerebral infarction area was measured by image analysis and the cerebral infarction volume was calculated.

IL-1β receptor [4] = conditions: non-patent document 6; cited from earlier work
IL-1β receptor [5] = molecular target: T1, IL-1β receptor (Homo sapiens, UniProt P14778); conditions: clinical trial (Phase II); non-patent document 7; cited from earlier work
T1 sequence (P14778 18-569): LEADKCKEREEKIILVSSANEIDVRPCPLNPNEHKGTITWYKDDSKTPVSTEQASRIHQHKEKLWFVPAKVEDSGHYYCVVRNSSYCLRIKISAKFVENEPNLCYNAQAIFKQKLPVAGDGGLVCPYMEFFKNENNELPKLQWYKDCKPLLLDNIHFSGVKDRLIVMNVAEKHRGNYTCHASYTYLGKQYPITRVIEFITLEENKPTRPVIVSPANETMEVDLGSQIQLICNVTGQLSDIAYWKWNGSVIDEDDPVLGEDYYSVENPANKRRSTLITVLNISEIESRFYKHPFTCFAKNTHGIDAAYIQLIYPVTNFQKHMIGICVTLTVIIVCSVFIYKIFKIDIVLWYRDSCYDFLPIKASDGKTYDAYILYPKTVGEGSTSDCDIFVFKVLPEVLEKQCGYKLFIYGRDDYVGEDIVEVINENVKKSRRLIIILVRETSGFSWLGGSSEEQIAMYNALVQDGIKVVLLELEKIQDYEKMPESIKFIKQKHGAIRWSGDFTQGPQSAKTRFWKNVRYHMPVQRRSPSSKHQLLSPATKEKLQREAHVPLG

Question: Which results are given for `CC(=O)NC1(c2ccc(CN3C[C@@H]4C[C@H]3CN4c3ncccn3)cc2)CC1` [test compound B, N-[1-(4-{[(1S,4S)-5-(pyrimidin-2-yl)-2,5-diazabicyclo[2.2.1]hept-2-yl]methyl}phenyl)cyclopropyl]acetamide]?
Answer: IL-6 production in LPS model mouse (in words) (IL-6): suppressed; IL-6 production (%) (IL-6; Table 2): 78.7%; IL-10 in LPS model mouse (in words) (IL-10): increased; IL-10 production (%) (IL-10): 350.1%; AUC0-last ([1]; 3 mg/kg i.v.): 1449.8 ± 123.3 ngh/mL; AUC0-∞ ([1]; 3 mg/kg i.v.): 1464.6 ± 122.3 ngh/mL; AUC0-last ([1]; 3 mg/kg p.o.): 1082.8 ± 171.1 ngh/mL; AUC0-∞ ([1]; 3 mg/kg p.o.): 1105.7 ± 170.8 ngh/mL; Cmax at 5 min ([1]; 3 mg/kg i.v.): 1600 ± 58.3 ng/mL; bioavailability [1]: 75.5%; Cmax ([1]; 3 mg/kg p.o.): 471 ng/mL; Kp at 1 h [2]: 0.8; Kp at 4 h [2]: 1.3; intracerebral transitivity (in words) [2]: intracerebrally transferred; TNF-α production in LPS model mouse (in words) (TNF-α): suppressed; TNF-α production (%) (TNF-α): 53.9%; MCP-1 production in LPS model mouse (in words) (MCP-1): suppressed; MCP-1 production (%) (MCP-1; Table 2): 63.9%; suppression of cerebral infarction volume [3]: 17.8%

Question: For `CC(=O)NC1(c2ccc(CN3CCN(c4ncccn4)CC3)cn2)CC1` [test compound C, N-(1-{5-[{4-(pyrimidin-2-yl)piperazin-1-yl}methyl]pyridin-2-yl}cyclopropyl)acetamide], which “IL-6 production in LPS model mouse (in words)” value (IL-6) is on record?
Answer: Its value is “suppressed”.

Question: What about the “IL-6 production (%)” value (IL-6; Table 3) of the same compound?
Answer: Its value is 81%.

Question: And the “IL-10 in LPS model mouse (in words)” value (IL-10)?
Answer: Its value is “increased”.

Question: And the “IL-10 production (%)” value (IL-10)?
Answer: Its value is 401.4%.

Question: What about the AUC0-last ([1]; 3 mg/kg i.v.) of the same compound?
Answer: Its AUC0-last is 10173.6 ± 3012.9 ngh/mL.

Question: What about the “AUC0-∞” value ([1]; 3 mg/kg i.v.) of the same compound?
Answer: Its value is 10446.3 ± 2852.3 ngh/mL.

Question: And the AUC0-last ([1]; 3 mg/kg p.o.)?
Answer: Its AUC0-last is 8192.2 ± 3114.3 ngh/mL.

Question: And the “AUC0-∞” value ([1]; 3 mg/kg p.o.)?
Answer: Its value is 8434.3 ± 2981.5 ngh/mL.

Question: What about the Cmax at 5 min ([1]; 3 mg/kg i.v.) of the same compound?
Answer: The Cmax at 5 min was 4510 ± 359 ng/mL.

Question: And the bioavailability [1]?
Answer: The bioavailability was 80.7%.

Question: And the Cmax ([1]; 3 mg/kg p.o.)?
Answer: The Cmax was 2000 ng/mL.

Question: And the Kp at 1 h [2]?
Answer: The Kp at 1 h was 0.8.

Question: And the Kp at 4 h [2]?
Answer: Its Kp at 4 h is 0.9.

Question: And the “intracerebral transitivity (in words)” value [2]?
Answer: Its value is “intracerebrally transferred”.

Question: And the “TNF-α production in LPS model mouse (in words)” value (TNF-α)?
Answer: Its value is “suppressed”.

Question: What about the “TNF-α production (%)” value (TNF-α) of the same compound?
Answer: The value was 50.6%.

Question: And the “MCP-1 production in LPS model mouse (in words)” value (MCP-1)?
Answer: The value was “suppressed”.

Question: What about the “MCP-1 production (%)” value (MCP-1; Table 3) of the same compound?
Answer: Its value is 72.1%.

Question: And the “suppression of cerebral infarction volume” value [3]?
Answer: The value was 43.2%.

Question: What does the source list for “recombinant IL-1ra: an IL-1β receptor antagonist (recombinant IL-1ra)”?
Answer: cerebral ischemic disorder (IL-1β receptor [4]): alleviating action; cerebral ischemic disorder (IL-1β receptor [5]): alleviating effect
